# Measurements published in PMC6440977, “Nucleoside analogue activators of cyclic AMP-independent protein kinase A of Trypanosoma” (Nature Communications, 2019).
# Where “and” joins values, the source holds several entries; their conditions need not be identical. Identical values can stand only once. Like-named read-outs stand apart in the source and are kept apart here. Ends that are not written are not given here. * marks the point of attachment. Myristoyl = CCCCCCCCCCCCCC(=O)*
# Legend:
# [1] = target: T. brucei PKA (Trypanosoma brucei brucei, UniProt Q9GU80); test: In vivo PKA reporter assay (VASP Ser-157 phosphorylation, western blot); type: cell-based; details: for effect on in vivo PKA activity (VASP phosphorylation), in words: wild type background; for % VASP phosphorylation: independent replicates;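 as to % VASP phosphorylation: Phosphorylated VASP as percent of total VASP band signal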;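 as to all read-outs here: T. brucei cells expressing human VASP as heterologous PKA substrate, compound exposure at 37 °C, western blot of phospho (50 kDa) versus unphosphorylated (46 kDa) VASP band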
# [2] = system: T. brucei ∆pkar/∆pkar (pkar KO) cells; test: microbe, parasite or virus in culture; type: cell-based, Trypanosoma brucei
# [3] = system: T. brucei BSF cells (WT); test: Alamar blue cell viability assay, wild type; details: wild type cells;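 also: trypanosomes seeded at 5×10^3 per ml and grown 72 h with compound, then resazurin 0.5 mM added for 4 h as the viability read-out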
# [4] = target: T. brucei PKAR-PKAC1 holoenzyme (Trypanosoma brucei, UniProt Q9GU80); test: biochemical; type: biochemical; details: for In vitro kinase assay: technical replicates
# [5] = system: T. brucei PKA holoenzyme (Ty1-PKAC1); type: biochemical, Trypanosoma brucei; details: for effect on basal kinase activity of immunoprecipitated holoenzyme, in words / in vitro kinase assay [CPM], average / in vitro kinase assay [CPM]: 1 mM; for in vitro kinase assay [CPM], PKI: 1 mM + 5 µM PKI(5-24); for in vitro kinase assay [CPM], PKI / in vitro kinase assay [CPM], average / in vitro kinase assay [CPM]: Supp Fig 3c; for in vitro kinase assay [CPM], average: average of 3; for in vitro kinase assay [CPM]: independent replicates
# [6] = read-out: EC50, Alamar blue cell viability assay, WT, individual replicate results
# Chain of T. brucei PKAR-PKAC1 holoenzyme (Q38DR5 entry or part of it): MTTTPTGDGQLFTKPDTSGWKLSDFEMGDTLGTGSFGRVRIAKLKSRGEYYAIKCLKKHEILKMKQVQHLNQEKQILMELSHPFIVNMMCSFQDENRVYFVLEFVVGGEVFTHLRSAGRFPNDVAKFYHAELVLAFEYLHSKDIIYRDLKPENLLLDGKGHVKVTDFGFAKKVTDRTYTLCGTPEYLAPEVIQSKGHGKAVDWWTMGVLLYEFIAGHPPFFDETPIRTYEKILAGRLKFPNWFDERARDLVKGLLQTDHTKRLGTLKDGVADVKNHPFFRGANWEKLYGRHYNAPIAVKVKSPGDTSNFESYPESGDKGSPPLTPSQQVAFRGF
# Chain of T. brucei PKAR-PKAC1 holoenzyme (Q9GU80 entry or part of it): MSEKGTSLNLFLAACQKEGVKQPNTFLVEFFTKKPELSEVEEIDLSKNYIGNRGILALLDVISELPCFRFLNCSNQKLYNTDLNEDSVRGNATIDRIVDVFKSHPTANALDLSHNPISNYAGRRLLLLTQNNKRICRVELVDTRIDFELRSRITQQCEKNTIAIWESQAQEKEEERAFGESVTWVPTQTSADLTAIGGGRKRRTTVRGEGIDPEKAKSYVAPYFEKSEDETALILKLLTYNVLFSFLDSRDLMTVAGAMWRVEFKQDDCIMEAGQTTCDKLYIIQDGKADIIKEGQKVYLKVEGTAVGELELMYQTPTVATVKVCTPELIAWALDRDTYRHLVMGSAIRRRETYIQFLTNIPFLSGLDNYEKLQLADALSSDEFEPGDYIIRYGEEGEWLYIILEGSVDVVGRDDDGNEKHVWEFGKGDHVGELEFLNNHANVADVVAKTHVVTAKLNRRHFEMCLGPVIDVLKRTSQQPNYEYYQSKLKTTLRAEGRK
# Chain of T. brucei PKA (Q38DS1 entry or part of it): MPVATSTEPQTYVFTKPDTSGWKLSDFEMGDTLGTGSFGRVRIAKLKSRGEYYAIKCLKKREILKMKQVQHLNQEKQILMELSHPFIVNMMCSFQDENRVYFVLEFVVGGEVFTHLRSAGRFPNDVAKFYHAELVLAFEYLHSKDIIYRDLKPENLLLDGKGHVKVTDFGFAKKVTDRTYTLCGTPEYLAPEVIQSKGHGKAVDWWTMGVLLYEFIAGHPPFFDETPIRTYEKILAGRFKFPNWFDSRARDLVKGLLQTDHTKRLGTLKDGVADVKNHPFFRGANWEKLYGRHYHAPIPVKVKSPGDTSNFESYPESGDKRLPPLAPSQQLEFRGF
# Chain of T. brucei PKA (Q38DR5 entry or part of it, further chain): as the sequence (Q38DR5 entry or part of it) above
# Chain of T. brucei PKA (Q9GU80 entry or part of it): as the sequence (Q9GU80 entry or part of it) above
molecule,measurement,setting,value
"Nc1nc2c(nc(Sc3ccc(Cl)cc3)n2[C@@H]2O[C@H](CO)[C@@H](O)[C@H]2O)c(=O)[nH]1 [8-pCPT-Guo, 8-(4-Chlorophenylthio)guanosine]","effect on in vivo PKA activity (VASP phosphorylation), in words",[1],no effect
"Nc1ncnc2c1nc(Sc1ccc(Cl)cc1)n2[C@@H]1O[C@@H]2COP(=O)([O-])O[C@H]2[C@H]1O.[Na+] [8-pCPT-cAMP, 8-(4-Chlorophenylthio)adenosine-3',5'-cyclic monophosphate]",% VASP phosphorylation,[1]; 10 µM,24.5763% and 23.1009% and 28.0286%
same,% VASP phosphorylation,[1]; 50 µM,16.5457% and 18.6378% and 24.8744%
same,% VASP phosphorylation,[1]; 100 µM,10.9425% and 13.8058% and 25.7149%
same,% VASP phosphorylation,[1]; 250 µM,9.807% and 10.2688% and 23.6208%
same,% VASP phosphorylation,[1]; 1000 µM,10.7438% and 15.1961% and 19.6401%
same,"effect on in vivo PKA activity (VASP phosphorylation), in words",[1],No PKA activation
"Nc1nc2c(nc(Sc3ccc(Cl)cc3)n2[C@@H]2O[C@@H]3COP(=O)(O)O[C@H]3[C@H]2O)c(=O)[nH]1 [8-pCPT-cGMP, 8-(4-Chlorophenylthio)guanosine-3',5'-cyclic monophosphate]",% VASP phosphorylation,[1]; 10 µM,25.8142% and 29.2369% and 19.6808%
same,% VASP phosphorylation,[1]; 50 µM,27.9869% and 31.8421% and 17.4767%
same,% VASP phosphorylation,[1]; 100 µM,30.4284% and 21.992% and 28.117%
same,% VASP phosphorylation,[1]; 250 µM,30.7048% and 20.4067% and 21.3305%
same,% VASP phosphorylation,[1]; 1000 µM,32.0969% and 20.8683% and 24.288%
OCCN(CCO)c1nc(N2CCCCC2)c2nc(N(CCO)CCO)nc(N3CCCCC3)c2n1 [Dipy],EC50,"[2]; individual replicate results; pkar KO cells; read-out: EC50, Alamar blue cell viability assay, KO",12.4 µM and 21.9 µM and 24.9 µM and 25.2 µM and 9.93 µM and 13.6 µM and 21.1 µM and 14.9 µM and 8.89 µM and 13.3 µM and 13.1 µM
same,EC50,[3]; [6],12.1 µM and 6.38 µM and 10.7 µM and 10.6 µM and 10.9 µM and 16.8 µM and 6.54 µM and 7.48 µM and 7.07 µM and 13.4 µM and 7.42 µM
OCCN(CCO)c1nc(N2CCCCC2)c2nc(N(CCO)CCO)nc(N3CCCCC3)c2n1 [Dipyridamol],In vitro kinase assay,[4]; 1 µM,0.38 U/ml and 0.36 U/ml
same,In vitro kinase assay,[4]; 100 µM,0.31 U/ml and 0.36 U/ml
same,In vitro kinase assay,[4]; 1 mM,0.38 U/ml and 0.41 U/ml
NC(=O)c1cn([C@@H]2O[C@H](CO)[C@@H](O)[C@H]2O)c2ncnc(N)c12 [Sangi],EC50,"[2]; read-out: EC50, Alamar blue cell viability assay, KO; individual replicate results; pkar KO cells",1.57 µM and 0.868 µM and 2.2 µM and 1.91 µM and 1.63 µM and 1.94 µM and 1.36 µM and 0.902 µM
same,EC50,"[3]; Trypanosoma brucei, read-out: EC50, Alamar blue cell viability assay, WT, individual replicate results",0.697 µM
same,EC50,[3]; [6],0.895 µM and 0.53 µM and 0.73 µM and 0.713 µM and 0.726 µM and 0.707 µM
"Nc1ncnc2c1ccn2[C@@H]1O[C@H](CO)[C@@H](O)[C@H]1O [Tubercidin, 7-Deazaadenosine]","effect on in vivo PKA activity (VASP phosphorylation), in words",[1],No effect
same,EC50,[4],5 ± 0.5 µM
same,In vitro kinase assay,[4]; 0.1 µM,0.31 U/ml and 0.36 U/ml
same,In vitro kinase assay,[4]; 0.78 µM,0.36 U/ml and 0.39 U/ml
same,In vitro kinase assay,[4]; 1.56 µM,0.39 U/ml and 0.42 U/ml
same,In vitro kinase assay,[4]; 3.13 µM,0.51 U/ml and 0.54 U/ml
same,In vitro kinase assay,[4]; 6.25 µM,0.7 U/ml and 0.67 U/ml
same,In vitro kinase assay,[4]; 12.5 µM,0.84 U/ml and 0.75 U/ml
same,In vitro kinase assay,[4]; 25 µM,0.84 U/ml and 0.93 U/ml
same,In vitro kinase assay,[4]; 50 µM,0.89 U/ml and 0.85 U/ml
"CC(=O)OCOP1(=O)OC[C@H]2O[C@@H](n3cnc4c(N)ncnc43)[C@H](O)[C@@H]2O1 (stereo partly shown) [cAMP-AM, Adenosine-3',5'-monophosphate, acetoxymethyl ester]",% VASP phosphorylation,[1]; 10 µM,36.276% and 37.2% and 34.8195%
same,% VASP phosphorylation,[1]; 20 µM,33.4307% and 32.7356% and 35.3637%
same,% VASP phosphorylation,[1]; 50 µM,35.9017% and 33.7363% and 34.7458%
same,% VASP phosphorylation,[1]; 100 µM,35.4076% and 39.0007% and 33.2483%
same,% VASP phosphorylation,[1]; 200 µM,44.3984% and 35.5186% and 38.5924%
same,"effect on in vivo PKA activity (VASP phosphorylation), in words",[1],No PKA activation
"CC(=O)OCOP1(=O)OC[C@H]2O[C@@H](n3cnc4c(=O)[nH]c(N)nc43)[C@H](O)[C@@H]2O1 (stereo partly shown) [cGMP-AM, Guanosine-3',5'-cyclic monophosphate, acetoxymethyl ester]",% VASP phosphorylation,[1]; 10 µM,34.8925% and 34.7802% and 32.2694%
same,% VASP phosphorylation,[1]; 20 µM,44.672% and 38.9969% and 29.3979%
same,% VASP phosphorylation,[1]; 50 µM,40.2424% and 33.9184% and 40.637%
same,% VASP phosphorylation,[1]; 100 µM,34.6686% and 36.9156% and 43.827%
same,% VASP phosphorylation,[1]; 200 µM,34.2202% and 37.453% and 36.5899%
"O=c1[nH]cnc2c1ncn2[C@@H]1O[C@@H]2COP(=O)(O)O[C@H]2[C@H]1O [cIMP, inosine-3’,5’-cyclic monophosphate]","effect on basal kinase activity of immunoprecipitated holoenzyme, in words",[5],did not show any significant effects
same,"in vitro kinase assay [CPM], PKI",[5],620.6 CPM
same,"in vitro kinase assay [CPM], average",[5],7285.53 CPM
same,in vitro kinase assay [CPM],[5],5568.4 CPM and 8615.56 CPM and 7672.63 CPM
"O=c1ccn([C@@H]2O[C@@H]3COP(=O)(O)O[C@H]3[C@H]2O)c(=O)[nH]1 [cUMP, uridine -3’,5’-cyclic monophosphate]","effect on basal kinase activity of immunoprecipitated holoenzyme, in words",[5],did not show any significant effects
same,"in vitro kinase assay [CPM], PKI",[5],572.53 CPM
same,"in vitro kinase assay [CPM], average",[5],5670.69 CPM
same,in vitro kinase assay [CPM],[5],4751.21 CPM and 5966.27 CPM and 6294.58 CPM
"O=c1[nH]c(=O)c2ncn(C3OC4COP(=O)(O)OC4C3O)c2[nH]1 (stereo not shown) [cXMP, xanthosine-3’,5’-cyclic monophosphate]","effect on basal kinase activity of immunoprecipitated holoenzyme, in words",[5],did not show any significant effects
same,"in vitro kinase assay [CPM], PKI",[5],870.13 CPM
same,"in vitro kinase assay [CPM], average",[5],6246.71 CPM
same,in vitro kinase assay [CPM],[5],4909.43 CPM and 6708.76 CPM and 7121.93 CPM
"myr-PKI(14–22): myristoylated membrane-permeable peptide inhibitor of PKA (Myristoyl-SGRTGRRNA; UniProt P61925 14-22, looked up, fragment)",VASP phosphorylation upon treatment with inhibitor alone,[1]; depending on the inhibitor batch,3-10%
same,"effect on in vivo PKA activity (VASP phosphorylation), in words",[1],reduced the measured activity to background
